Measurements reported in paper PMC6010098, “Synthesis, antitumour and antioxidant activities of novel α,β-unsaturated ketones and related heterocyclic analogues: EGFR inhibition and molecular modelling study” (Journal of Enzyme Inhibition and Medicinal Chemistry, 2018).
Read-outs that look alike come from different tables or passages of the source.

Key:
HepG2 cells = experiment: MTT antitumour assay, HepG2; assay type: cell-based; conditions: human hepato-cellular carcinoma cell line, mean ± SD, n = 3
Protocol: (§1) The evaluation of the antitumour activity was performed using tetrazolium salt MTT (3-(4,5-dimethyl-2-thiazolyl)-2,5-diphenyl-2H-tetrazolium bromide) assay as reported[62]^,[63].
(§2) The designed compounds were evaluated for their in vitro antitumour effects via the standard 3-(4,5-dimethylthiazol-2-yl)-2,5-diphenyltetrazolium bromide (MTT) method against a panel of four human tumour cell lines; namely, hepatocellular carcinoma cell line (HepG2), breast cancer cell line (MCF-7), human cervical cancer cell line (HeLa), and prostate cancer cell line (PC-3)[62]^,[63]^,[72]. The antitumour activities of the designed compounds 4–12, along with that of the reference drugs 5-FU and afatinib are shown in Table 1.

MCF-7 cells = experiment: MTT antitumour assay, MCF-7; assay type: cell-based; conditions: MCF7, human breast adenocarcinoma cell line, mean ± SD, n = 3
Protocol: as §1, §2

HeLa cells = experiment: MTT antitumour assay, HeLa; assay type: cell-based; conditions: human cervical epithelioid carcinoma cell line, mean ± SD, n = 3
Protocol: as §1
as §2, with “(PC-3)[62]^,[63]^,[72].” for “(PC-3)[62]^,[63]^,[72]. The antitumour activities of the designed compounds 4–12, along with that of the reference drugs 5-FU and afatinib are shown in Table 1.”

PC-3 cells = experiment: MTT antitumour assay, PC-3; assay type: cell-based; conditions: human prostate cancer cell line, mean ± SD, n = 3
Protocol: as §1, §2

[1] = ABTS radical cation scavenging (antioxidant) assay; conditions: 20 µl of 1 mg/ml test sample (L-ascorbic acid 20 µl, 2 mM)
Protocol: The absorbance (Acontrol) of a green-blue solution (ABTS^+ radical solution) resulted from a mixture of ABTS and manganese dioxide (MnO2) and was recorded at λmax 734 nm, according to the reported procedure[64]^,[65]. The absorbance (Atest) was measured upon the addition of 20 µl of 1 mg/ml solution of the test sample in spectroscopic grade methanol/phosphate buffer (1:1 v/v) to the ABTS solution. The decrease in absorbance is expressed as % inhibition, which can be calculated from the following equation: % inhibition = Acontrol-Atest/Acontrol×100.
L-Ascorbic acid 20 µl (2 mM) solution was used as standard antioxidant (positive control). A blank sample was run using only methanol/phosphate buffer (1:1), while the negative control was run with ABTS and the methanol/phosphate buffer.
The assay is based on measuring the ability of the tested compounds to scavenge the long-life radical cation of ABTS[22]^,[43]^,[64]^,[65].

[2] = system: HepG2, MCF-7, HeLa, and PC-3 cancer cell lines; experiment: MTT antitumour assay, range over the four cell lines; assay type: cell-based, human; conditions: range over HepG2, MCF-7, HeLa, PC-3 (and over the compounds named), read-out: IC50 range against the tested cell lines
Protocol: as §1, §2

EGFR kinase = EGFR kinase (Homo sapiens, UniProt P00533); experiment: ELISA-based EGFR kinase inhibition assay; conditions: for inhibition at 0.15 µM: read-out: % Inhibition EGFR, 0.15 μM; for inhibition at 0.31 µM: read-out: % Inhibition EGFR, 0.31 μM; for inhibition at 0.625 µM: read-out: % Inhibition EGFR, 0.625 μM; for inhibition at 1.25 µM: read-out: % Inhibition EGFR, 1.25 μM; for inhibition at 2.5 µM: read-out: % Inhibition EGFR, 2.5 μM; for inhibition at 5 µM: read-out: % Inhibition EGFR, 5.0 μM; for inhibition at 10 µM: read-out: % Inhibition EGFR, 10.0 μM; for Conc. (Average), ELISA read-out: duplicate wells, standards in ng/ml, cont 134.9
EGFR kinase, sequence (P00533 25-1210): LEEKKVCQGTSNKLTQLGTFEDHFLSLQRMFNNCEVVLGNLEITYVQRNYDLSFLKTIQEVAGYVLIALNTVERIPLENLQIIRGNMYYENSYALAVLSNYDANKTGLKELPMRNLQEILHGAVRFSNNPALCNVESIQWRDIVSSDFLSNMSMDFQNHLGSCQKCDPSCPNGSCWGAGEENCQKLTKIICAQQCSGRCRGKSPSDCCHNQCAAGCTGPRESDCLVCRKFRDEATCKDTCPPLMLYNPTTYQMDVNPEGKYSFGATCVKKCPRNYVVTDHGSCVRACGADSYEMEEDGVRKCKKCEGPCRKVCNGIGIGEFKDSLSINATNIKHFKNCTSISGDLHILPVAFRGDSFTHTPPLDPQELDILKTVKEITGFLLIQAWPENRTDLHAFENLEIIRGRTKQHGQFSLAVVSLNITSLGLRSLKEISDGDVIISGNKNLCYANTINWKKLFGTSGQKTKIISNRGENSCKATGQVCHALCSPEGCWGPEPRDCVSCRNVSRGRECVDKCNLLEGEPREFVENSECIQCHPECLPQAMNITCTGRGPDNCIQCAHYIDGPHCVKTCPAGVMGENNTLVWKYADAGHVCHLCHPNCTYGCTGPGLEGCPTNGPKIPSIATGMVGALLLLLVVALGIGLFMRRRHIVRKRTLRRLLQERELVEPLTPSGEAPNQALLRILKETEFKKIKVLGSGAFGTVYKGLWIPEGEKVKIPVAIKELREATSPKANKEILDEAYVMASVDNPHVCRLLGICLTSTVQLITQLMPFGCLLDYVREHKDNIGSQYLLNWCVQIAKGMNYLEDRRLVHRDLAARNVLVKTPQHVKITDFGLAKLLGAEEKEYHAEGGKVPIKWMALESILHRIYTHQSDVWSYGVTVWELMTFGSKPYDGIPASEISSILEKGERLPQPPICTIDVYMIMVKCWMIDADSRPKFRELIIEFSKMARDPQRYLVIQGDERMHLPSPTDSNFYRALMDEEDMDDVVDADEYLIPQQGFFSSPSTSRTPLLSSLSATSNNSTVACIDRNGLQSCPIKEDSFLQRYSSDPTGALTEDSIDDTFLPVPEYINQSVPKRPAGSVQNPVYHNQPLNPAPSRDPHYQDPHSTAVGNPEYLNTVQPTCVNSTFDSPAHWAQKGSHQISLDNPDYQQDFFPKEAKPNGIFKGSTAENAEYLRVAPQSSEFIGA

IC50 (HepG2 cells)	IC50 (MCF-7 cells)	IC50 (HeLa cells)	IC50 (PC-3 cells; PC-3, MTT)	IC50 ([2]; Homo sapiens)	IC50 (EGFR kinase)	% Inhibition EGFR (EGFR kinase; 0.15 μM)	% Inhibition EGFR (EGFR kinase; 0.31 μM)	% Inhibition EGFR (EGFR kinase; 0.625 μM)	% Inhibition EGFR (EGFR kinase; 1.25 μM)	% Inhibition EGFR (EGFR kinase; 2.5 μM)	% Inhibition EGFR (EGFR kinase; 5.0 μM)	% Inhibition EGFR (EGFR kinase; 10.0 μM)	inhibition at 0.15 µM (EGFR kinase)	inhibition at 0.31 µM (EGFR kinase)	inhibition at 0.625 µM (EGFR kinase)	inhibition at 1.25 µM (EGFR kinase)	inhibition at 2.5 µM (EGFR kinase)	inhibition at 5 µM (EGFR kinase)	SMILES	%Inhibition of the ABTS radical cation [1]	further results
13 ± 0.87 µM	13.7 ± 1.35 µM	6.7 ± 0.67 µM	9.1 ± 0.88 µM	5.5 to 18.1 µM	0.56 µM	26.52%	48.95%	55.33%	61.23%	64.44%	76.71%	83.66%	26.5%	49%	55.3%	61.2%	64.4%	76.7%	CCN1CCC(=O)C(=Cc2ccc(OC3CCCC3)cc2)C1 [6b, 3-(4-(Cyclopentyloxy)benzylidene)-1-ethylpiperidin-4-one]	55.1%	inhibition at 10 µM (EGFR kinase): 83.7%; Conc. (Average), ELISA read-out (EGFR kinase; sample at 0.15uM): 99.12; Conc. (Average), ELISA read-out (EGFR kinase; sample at 0.31uM): 68.86; Conc. (Average), ELISA read-out (EGFR kinase; sample at 0.62uM): 60.25; Conc. (Average), ELISA read-out (EGFR kinase; sample at 1.25uM): 52.29; Conc. (Average), ELISA read-out (EGFR kinase; sample at 2.5uM): 47.96; Conc. (Average), ELISA read-out (EGFR kinase; sample at 5uM): 31.41; Conc. (Average), ELISA read-out (EGFR kinase; sample at 10uM): 22.04
7.2 ± 0.24 µM	5.6 ± 0.36 µM	5.5 ± 0.45 µM	7.8 ± 0.56 µM	5.5 to 18.1 µM	2.16 µM	6.96%	26.25%	43.85%	47.28%	50.51%	60.72%	64.88%	6.97%	26.3%	43.9%	47.3%	50.5%	60.7%	Cc1ccc(C2=NN(c3ccccc3)C(c3ccc(OC4CCCC4)cc3)C2)cc1 (stereo not drawn) [8b, 5-(4-(Cyclopentyloxy)phenyl)-1-phenyl-3-(4-methylphenyl)-4,5-dihydro-1H-pyrazole]	88.5%	IC50 [2]: 5.5 to 7.8 µM; inhibition at 10 µM (EGFR kinase): 64.9%; Conc. (Average), ELISA read-out (EGFR kinase; sample at 0.15uM): 125.5; Conc. (Average), ELISA read-out (EGFR kinase; sample at 0.31uM): 99.48; Conc. (Average), ELISA read-out (EGFR kinase; sample at 0.62uM): 75.74; Conc. (Average), ELISA read-out (EGFR kinase; sample at 1.25uM): 71.11; Conc. (Average), ELISA read-out (EGFR kinase; sample at 2.5uM): 66.76; Conc. (Average), ELISA read-out (EGFR kinase; sample at 5uM): 52.98; Conc. (Average), ELISA read-out (EGFR kinase; sample at 10uM): 47.37
85.4 ± 5.31 µM	87.1 ± 5.24 µM	89.4 ± 4.89 µM	> 100 µM	–	–	–	–	–	–	–	–	–	–	–	–	–	–	–	O=C(O)c1cc(C=Cc2ccc(OC3CCCC3)cc2)nc2ccc(Br)cc12 [12a, 6-Bromo-2-(4-(cyclopentyloxy)styryl)quinoline-4-carboxylicacid]	–	melting point: > 300 °C
5.4 ± 0.25 µM	7.1 ± 0.49 µM	6.2 ± 0.67 µM	–	5.4 to 7.6 µM	–	–	–	–	–	–	–	–	–	–	–	–	–	–	CN(C)C/C=C/C(=O)Nc1cc2c(Nc3ccc(F)c(Cl)c3)ncnc2cc1O[C@H]1CCOC1 [Afatinib, reference compound]	–	IC50 (PC-3 cells; Homo sapiens, PC-3, MTT): 7.6 µM; IC50 (PC-3 cells; MTT): 7.7 ± 0.57 µM
–	–	–	–	–	–	–	–	–	–	–	–	–	–	–	–	–	–	–	O=C1O[C@H]([C@@H](O)CO)C(O)=C1O [Ascorbic acid, L-Ascorbic acid, reference compound]	90.0%	–
8 ± 0.38 µM	7.5 ± 0.54 µM	10.3 ± 1.13 µM	13.3 ± 1.26 µM	5.5 to 18.1 µM	1.6 µM	8.22%	31.78%	43.27%	49.65%	52.86%	65.98%	72.78%	8.23%	31.8%	43.3%	49.7%	52.9%	66%	CCOC(=O)C1=C(C)OC(N)=C(C#N)C1c1ccc(OC2CCCC2)cc1 (stereo not drawn) [compound 7, ethyl 6-amino-5-cyano-4-(4-(cyclopentyloxy)phenyl)-2-methyl-4H-pyran-3-carboxylate]	75.8%	inhibition at 10 µM (EGFR kinase): 72.8%; Conc. (Average), ELISA read-out (EGFR kinase; sample at 0.15uM): 123.8; Conc. (Average), ELISA read-out (EGFR kinase; sample at 0.31uM): 92.02; Conc. (Average), ELISA read-out (EGFR kinase; sample at 0.62uM): 76.52; Conc. (Average), ELISA read-out (EGFR kinase; sample at 1.25uM): 67.92; Conc. (Average), ELISA read-out (EGFR kinase; sample at 2.5uM): 63.59; Conc. (Average), ELISA read-out (EGFR kinase; sample at 5uM): 45.89; Conc. (Average), ELISA read-out (EGFR kinase; sample at 10uM): 36.71
80.9 ± 5.34 µM	70.9 ± 4.98 µM	51.2 ± 3.82 µM	41.9 ± 2.87 µM	–	–	–	–	–	–	–	–	–	–	–	–	–	–	–	Cc1ccc(-c2cc(-c3ccc(OC4CCCC4)cc3)c(C#N)c(=O)[nH]2)cc1 [compound 10, 4-(4-(cyclopentyloxy)phenyl)-2-oxo-6-(4-methylphenyl)-1,2-dihydropyridine-3-carbonitrile]	–	melting point: 278 to 280 °C
